In patent US11021481B2, “Substituted isoindolin-1-ones and 2,3-dihydro-1h-pyrrolo[3,4-c]pyridin-1-ones as HPK1 antagonists” (Nimbus Saturn, Inc., priority 2019, dated 2021):

target: HPK1 (Homo sapiens (Human), UniProt Q92918); assay: HPK1 biochemical enzyme assay (microfluidic mobility shift assay); conditions: 1.5 nM HPK1, ATP 1 mM final, 30 min preincubation, 60 min at RT, Caliper EZ Reader; read-out: HPK1 1000UMATP caliper IC50
How it was run: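 Ten-point compound titrations (top 3 μM final) preincubated 30 min with HPK1 and substrate, then reaction started with 1 mM ATP and 1 μM substrate, 5 mM MgCl2. After 60 min at RT, reaction terminated and product measured by microfluidic mobility shift.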

Sequence of HPK1 (Q92918 whole entry): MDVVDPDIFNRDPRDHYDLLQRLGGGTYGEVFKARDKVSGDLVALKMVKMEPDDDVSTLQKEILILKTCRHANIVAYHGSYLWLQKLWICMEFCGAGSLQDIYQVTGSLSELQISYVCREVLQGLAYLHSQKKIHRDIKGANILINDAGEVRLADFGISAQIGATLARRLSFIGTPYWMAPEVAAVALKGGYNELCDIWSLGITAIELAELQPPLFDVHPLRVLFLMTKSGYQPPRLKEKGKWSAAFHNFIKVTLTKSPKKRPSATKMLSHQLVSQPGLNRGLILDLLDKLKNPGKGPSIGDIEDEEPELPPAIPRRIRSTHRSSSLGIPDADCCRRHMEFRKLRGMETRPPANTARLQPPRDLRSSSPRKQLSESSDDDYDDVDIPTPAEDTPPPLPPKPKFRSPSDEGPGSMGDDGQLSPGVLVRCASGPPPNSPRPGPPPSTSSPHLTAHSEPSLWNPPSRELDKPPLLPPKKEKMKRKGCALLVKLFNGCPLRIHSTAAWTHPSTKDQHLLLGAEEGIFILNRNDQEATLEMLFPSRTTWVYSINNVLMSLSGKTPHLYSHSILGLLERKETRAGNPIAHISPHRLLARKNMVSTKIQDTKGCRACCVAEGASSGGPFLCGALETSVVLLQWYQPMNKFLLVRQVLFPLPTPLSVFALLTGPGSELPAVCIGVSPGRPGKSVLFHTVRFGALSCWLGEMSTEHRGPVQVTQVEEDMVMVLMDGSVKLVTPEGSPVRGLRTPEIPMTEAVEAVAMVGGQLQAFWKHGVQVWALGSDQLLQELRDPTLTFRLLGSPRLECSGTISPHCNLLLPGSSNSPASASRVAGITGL

| IC50 | Compound |
| --- | --- |
| < 100 nM | Cn1ccc2c(-c3ccc(Nc4ccc(N5CCC[C@@H](N)C5)cn4)c4c3CNC4=O)ccnc21 [I-95, 7-[[5-[(3R)-3-amino-1-piperipyl]-2-pyridyl]amino]-4-(1-methylpyrrolo [2,3-b]pyridin-4-yl)isoindolin-1-one] |
| < 100 nM | CN1CCN(CC2(O)CCN(c3ccc(Nc4ccc(-c5cnc6cc(F)ccn56)c5c4C(=O)NC5)nc3)CC2)CC1 [I-365, 4-(7-fluoroimidazo [1,2-a]pyridin-3-yl)-7-((5-(4-hydroxy-4-((4-methylpiperazin-1-yl)methyl)pip-eridin-1-yl)pyridin-2-yl)amino)isoin-dolin-1-one] |
| < 100 nM | CN1C[C@H](c2ccc(Nc3ccc(-c4cnc5cnccn45)c4c3C(=O)NC4)nc2)CC1=O [I-331, (S)-4-(imidazo[1,2-a]pyrazin-3-yl)-7-((5-(1-methyl-5-oxopyrrolidin-3-yl)pyridin-2-yl)amino)isoin-dolin-1-one] |
| 100 to 1000 nM | CCOc1c(C#N)ccn2c(-c3ccc(Nc4ccc(N5CCC(O)CC5)cn4)c4c3CNC4=O)cnc12 [I-185, 8-ethoxy-3-[7-[[5-(4-hydroxy-1-piperidyl)-2-pyripyl]amino]-1-oxo-isoindolin-4-yl]imidazo[1,2-a]pyridine-7-carbonitrile] |
| < 100 nM | CN(C)Cc1nc(Nc2ccc(-c3cnc4cc(F)ccn34)c3c2C(=O)NC3)ccc1[C@@H]1CCCOC1 [I-551] |
| < 100 nM | O=C1NCc2c(-c3cnc4cc(OCCO)ccn34)ccc(Nc3ccc(N4CCOCC4)cn3)c21 [I-201, 4-[7-(2-hydroxyeth-oxy)imidazo[1,2-a]pyridin-3-yl]-7-[(5-morpholino-2-pyridyl)amino] isoindolin-1-one] |
| < 100 nM | CN1CCN(c2ccc(Nc3cnc(-c4cnc5c(F)cccn45)c4c3C(=O)NC4)nc2)CC1C(C)(C)O (stereo in doubt) [I-622, (S)-4-(8-fluoroimidazo [1,2-a]pyridin-3-yl)-7-((5-(3-(2-hydroxypropan-2-yl)-4-methylpiperazin-1-yl)pyridin-2-yl)amino)-2.3-dihydro-1H-pyrrolo[3,4-c]pyridin-1-one] |
| < 100 nM | Cn1ccc2c(-c3ncc(Nc4ccc(N5CCC[C@H](C(C)(C)O)C5)cn4)c4c3CNC4=O)ccnc21 [I-211, 7-[[5-[(3S)-3-(1-hydroxy-1-methyl-ethyl)-1-piperidyl]-2-pyridyl]-amino]-4-(1-methylpyrrolo [2,3-b]pyridin-4-yl)-2,3-dihydropyrrolo [3,4-c]pyridin-1-one] |
| < 100 nM | O=C1NCc2c(-c3cnc4ccccn34)ncc(Nc3ccc(N4CCC(O)CC4)cn3)c21 [I-160, 7-[[5-(4-hydroxy-1-piperidyl)-2-pyridyl]amino]-4-imidazo[1,2-a]pyridin-3-yl-2,3-dihydropyrrolo [3,4-c]pyridin-1-one] |
| < 100 nM | Cn1cc(-c2ccc(Nc3ccc(N4CCC(O)CC4)cn3)c3c2CNC3=O)c2ccnnc21 [I-374, 7-((5-(4-hydroxy-piperidin-1-yl)pyridin-2-yl)amino)-4-(7-methyl-7H-pyrrolo[2,3-c]pyridazin-5-yl)isoindolin-1-one] |
| < 100 nM | Cc1cccn2c(-c3ccc(Nc4ccc(N5CCN(C)CC5)cn4)c4c3CNC4=O)cnc12 [I-52, 4-(8-methylimidazo [1,2-a]pyridin-3-yl-)-7-[[5-(4-methylpiperazin-1-yl)-2-pyridyl]amino] isoindolin-1-1-one] |
| < 100 nM | COc1cc(Nc2ccc(-c3cnc4cc(F)ccn34)c3c2C(=O)NC3)ncc1N1CCC(O)CC1 [I-372, 4-(7-fluoroimidazo [1,2-a]pyridin-3-yl)-7-((5-(4-hydroxypipendin-1-yl)-4-methoxypyridin-2-yl)amino)isoin-dolin-1-one] |
| < 100 nM | CN(C)C[C@]1(O)CCCN(c2ccc(Nc3ccc(-c4cnc5cc(F)ccn45)c4c3C(=O)NC4)nc2)C1 [I-567, (R)-7-((5-(3-((dimethylamino)-methyl)-3-hydroxypiperidin-1-yl)pyridin-2-yl)amino)-4-(7-fluoroimidazo [1,2-a]pyridin-3-yl)isoindolin-1-one] |
| 100 to 1000 nM | O=C1NCc2c(-c3cnn4c3CCCCC4)ccc(Nc3ccc(N4CCC(O)CC4)cn3)c21 [I-283, 7-((5-(4-hydroxy-piperidin-1-yl)pyridin-2-yl)amino)-4-(5,6,7,8-tetrahydro-4H-pyrazolo[1,5-a]azepin-3-yl)isoindolin-1-one] |
| < 100 nM | O=C1NCc2c(-c3cnc4cc(F)ccn34)ccc(Nc3ccc(N4CC[C@@H](O)[C@H](F)C4)cn3)c21 [I-399, 7-((5-((3R,4R)-3-fluoro-4-hydroxy-piperidin-1-yl)pyridin-2-yl)amino)-4-(7-fluoroimidazo [1,2-a]pyridin-3-yl)isoindolin-1-one] |
| < 100 nM | CN(C)Cc1cc(Nc2ccc(-c3cnc4cc(Cl)ccn34)c3c2C(=O)NC3)ncc1C1(O)CCOCC1 [I-633, 4-(7-chloroimidazo [1,2-a]pyridin-3-yl)-7-((4-((dimethylamino)-methyl)-5-(4-hydroxytetra-hydro-2H-pyran-4-yl)pyridin-2-yl)amino)isoin-dolin-1-one] |
| < 100 nM | CNC(C)(C)[C@@H]1CN(c2ccc(Nc3ccc(-c4cnc5cc(F)ccn45)c4c3C(=O)NC4)nc2)CCO1 (single isomer, unassigned) [I-675] |
| 100 to 1000 nM | CN1CCN(c2ccc(Nc3ccc(-c4ccn5ncnc5c4)c4c3C(=O)NC4)nc2)CC1 [I-36, 7-[[5-(4-methylpiperazin-1-yl)-2-pyridyl]amino]-4-([1,2,4]triazolo [1,5-a]pyridin-7-yl)isoindolin-1-one] |
| < 100 nM | CN1CC(O)(C2CCCN(c3ccc(Nc4ccc(-c5cnc6cc(F)ccn56)c5c4C(=O)NC5)nc3)C2)C1 (stereo in doubt) [I-678, (R)-4-(7-fluoroimidazo [1,2-a]pyridin-3-yl)-7-((5-(3-(3-hydroxy-1-methylazetidin-3-yl)piperidin-1-yl)pyridin-2-yl)amino)isoin-dolin-1-one] |
| < 100 nM | CC(C)(O)[C@@H]1CCCN(c2ccc(Nc3cnc(-c4cnc5ccccn45)c4c3C(=O)NC4)nc2)C1 [I-220, 7-[[5-[(3R)-3-(1-hydroxy-1-methyl-ethyl)-1-piperidyl]-2-pyridyl]-amino]-4-imidazo[1,2-a]pyridin-3-yl-2,3-dihydropyrrolo [3,4-c]pyridin-1-one] |
| < 100 nM | O=C1NCc2c(-c3cnc4cc(F)ccn34)ccc(Nc3ccc([C@@H]4CCOC4)c(CN4CCCC4)n3)c21 [I-516, (S)-4-(7-fluoroimidazo [1,2-a]pyridin-3-yl)-7-((6-(pyrrolidin-1-ylmethyl)-5-(tetrahydrofuran-3-yl)pyridin-2-yl)amino)isoin-dolin-1-one] |
| > 1000 nM | Cn1nccc2c(-c3ccc(Nc4ccc(N5CCC(O)CC5)cn4)c4c3CNC4=O)cnc1-2 [I-375, 7-((5-(4-hydroxy-piperidin-1-yl)pyridin-2-yl)amino)-4-(1-methyl-1H-pyrrolo[2,3-c]pyridazin-5-yl)isoindolin-1-one] |
| 100 to 1000 nM | Cc1cnc2c(ccn2C)c1-c1ccc(Nc2ccc(N3CCNCC3)cn2)c2c1CNC2=O [I-99, 4-(l,5-dimethylpyrrolo [2,3-b]pyridin-4-yl)-7-[(5-piperazin-1-yl-2-pyridyl)amino] isoindolin-1-one] |
| < 100 nM | CN1CCN(c2ccc(Nc3ccc(-c4cnc5c(C#N)cccn45)c4c3C(=O)NC4)nc2)CC1 [I-74, 3-[7-[[5-(4-methylpiperazin-1-yl)-2-pyridyl]amino]-1-oxo-isoindolin-4-yl]imidazo[1,2-a]pyridine-8-carbonitrile] |
| < 100 nM | O=C1NCc2c(-c3cnc4cc(F)ccn34)ccc(Nc3ccc([C@@H]4CCOC4)c(CN4CC[C@@H](O)C4)n3)c21 [I-784, 4-(7-fluoroimidazo [1,2-a]pyridin-3-yl)-7-((6-(((R)-3-hydroxypyrroli-din-1-yl)methyl)-5-((S)-tetrahydrofuran-3-yl)pyridin-2-yl)amino)isoin-dolin-1-one] |
| < 100 nM | CN1CCN(c2ccc(Nc3ccc(-c4ccnc5c4CCN5)c4c3C(=O)NC4)nc2)CC1 [I-68, 4-(2,3-dihydro-1H-pyrrolo[2,3-b]pyridin-4-yl)-7-[[5-(4-methylpiperazin-1-yl)-2-pyridyl]amino] isoindolin-1-one] |
| < 100 nM | COC[C@@H]1CN(c2ccc(Nc3cnc(-c4ccnc5c4ccn5C)c4c3C(=O)NC4)nc2CN(C)C)CCO1 [I-797, (S)-7-((6-((dimethylamino)-methyl)-5-(2-(methoxymeth-yl)morpholino)-pyridin-2-yl)amino)-4-(1-methyl-1H-pyrrolo[2,3-b]pyridin-4-yl)-2,3-dihydro-1H-pyrrolo[3,4-c)pyridin-1-one] |
| < 100 nM | Cn1ccc2c(-c3ccc(Nc4ccc(N5CCCNCC5)cn4)c4c3CNC4=O)ccnc21 [I-79, 7-[[5-(1,4-diazepan-1-yl)-2-pyridyl]amino]-4-(1-methylpyrrolo [2,3-b]pyridin-4-yl)isoindolin-1-one] |
| < 100 nM | O=C1NCc2c(-c3cnc4cc(F)ccn34)ccc(Nc3ccc([C@@H]4CCOC4)c(CNCC(F)F)n3)c21 (single isomer, unassigned) [I-740] |

| Compound | IC50 |
| --- | --- |
| CN1CCC(C)(c2cccc(Nc3cnc(-c4ccnc5c4ccn5C)c4c3C(=O)NC4)n2)CC1 [I-575, 7-((6-(l,4-dimethyl-piperidin-4-yl)pyridin-2-yl)amino)-4-(1-methyl-1H-pyrrolo[2,3-b]pyridin-4-yl)-2,3-dihydro-1H-pyrrolo[3,4-c]pyridin-1-one] | 100 to 1000 nM |
| (S)-7-((6- ((dimethylamino)- methyl)-5- (tetrahydrofuran- 3-yl)pyridin- 2-yl)amino)-4- (1-methyl-1H- indol-4-yl)- 2,3-dihydro- 1H-pyrrolo[3,4- c]pyridin-1-one [I-540] | < 100 nM |
| CN1CCC(O)(c2cccc(Nc3cnc(-c4ccnc5c4ccn5C)c4c3C(=O)NC4)n2)CC1 [I-407, 7-((6-(4-hydroxy-1-methylpiperidin-4-yl)pyridin-2-yl)amino)-4-(1-methyl-1H-pyrrolo[2,3-b]pyridin-4-yl)-2,3-dihydro-1H-pyrrolo[3,4-c]pyridin-1-one] | < 100 nM |
